Measured values published in patent US6482921B1, “Uridyl peptide antibiotic (UPA) derivatives, their synthesis and use” (Essential Therapeutics, Inc., priority 1999, dated 2002).
Values after ≈ are worked out from the molar mass of the structure shown. Where two headings read alike, the source gives them in different places.

Experiments:
[1] = test system: Mycobacterium tuberculosis H37Rv; assay: MIC agar dilution, M. tuberculosis H37Rv; assay type: cell-based
[2] = test system: Pseudomonas aeruginosa PAM 1323; assay: MIC broth microdilution, P. aeruginosa PAM 1323 (medium level UPA resistance); assay type: cell-based
[3] = test system: Pasteurella multocida pm002; assay: MIC broth microdilution, P. multocida pm002 (wild type); assay type: cell-based
[4] = test system: Pseudomonas aeruginosa PAM 1020; assay: MIC broth microdilution, P. aeruginosa PAM 1020 (wild type); assay type: cell-based; settings: P. aeruginosa PAM 1020
[5] = test system: Escherichia Coli MC 4100 AcrAB; assay: MIC broth microdilution, E. coli MC 4100 AcrAB (ΔAcrAB); assay type: cell-based; settings: E. coli AcrAB
[6] = test system: Staphylococcus aureus 8325-4; assay: MIC broth microdilution, S. aureus 8325-4 (wild type); assay type: cell-based; settings: S. aureus 8325-4
[7] = test system: Escherichia Coli MC 4100; assay: MIC broth microdilution, E. coli MC 4100 (wild type); assay type: cell-based; settings: E. coli MC 4100
[8] = test system: Pseudomonas aeruginosa PAM 1154; assay: MIC broth microdilution, P. aeruginosa PAM 1154 (OprM::Hg); assay type: cell-based; settings: P. aeruginosa PAM 1154 OprM::Hg
[9] = test system: Mycobacterium tuberculosis TN913; assay: MIC agar dilution, M. tuberculosis TN913; assay type: cell-based
[10] = test system: Staphylococcus aureus ATCC 29213; assay: MIC broth microdilution, S. aureus ATCC 29213 (wild type); assay type: cell-based; settings: S. aureus ATCC 29213
[11] = test system: Escherichia Coli MC 4100 AcrAB UPA3r; assay: MIC broth microdilution, E. coli MC 4100 AcrAB UPA3r (ΔAcrAB, UPA resistant); assay type: cell-based; settings: E. coli AcrAB UPA3^r
[12] = test system: Pseudomonas aeruginosa PAM 1135; assay: MIC broth microdilution, P. aeruginosa PAM 1135 (high level UPA resistance); assay type: cell-based; settings: P. aeruginosa PAM 1135 UPA1^r
[13] = test system: Mycobacterium smegmatis ATCC 19420; assay: MIC broth microdilution, M. smegmatis ATCC 19420; settings: 72 hours at 35° C., CAMHB
[14] = test system: Mycobacterium fortuitum ATCC 6841; assay: MIC broth microdilution, M. fortuitum ATCC 6841; settings: 72 hours at 35° C., CAMHB
[15] = agar dilution, Middlebrook 7H10 agar, four weeks at 35° C., 0, 1, 10 and 30 tested

Structure (SMILES)	MIC H37RV (SENSITIVE) [1]	MIC (μg/ml) Broth microdilution [2]	MIC (μg/ml) Broth microdilution [3]	MIC (μg/ml) Broth microdilution [4]	MIC (μg/ml) Broth microdilution [5]	MIC (μg/ml) Broth microdilution [6]	MIC (μg/ml) Broth microdilution [7]	MIC (μg/ml) Broth microdilution [8]	MIC TN913 (SENSITIVE) [9]	MIC (μg/ml) Broth microdilution [10]	MIC (μg/ml) Broth microdilution [11]	MIC (μg/ml) Broth microdilution [12]	MIC Broth microdilution M. smegmatis ATCC19420 [13]	MIC Broth microdilution M. fortuitum ATCC 6841 [14]	MIC H37RV (SENSITIVE) [1, 15]	MIC TN913 (SENSITIVE) [9, 15]
CC(N)C(=O)N(C)C(C)C(NC(=O)C(Cc1ccc(C(F)(F)F)cc1)NC(=O)NC(Cc1c[nH]c2ccccc12)C(=O)O)C(=O)NCC1CC(O)C(n2ccc(=O)[nH]c2=O)O1 [Compound 146, 1-[5′-[(2S,3S)-N^3-L-Alanyl-N^2-[N-[[(1S)-1-carboxy-2-indol-3-ylethyl]carbamoyl]-L-4-(trifluoromethyl)phenylalanyl]-N^3-methyl-2,3-diaminobutyramido]-3′,5′-dideoxy-α-L-arabinofuranosyl]uracil]	10 µg/mL (≈ 11.7 µM)	>512 µg/mL	64 µg/mL (≈ 74.6 µM)	256 µg/mL (≈ 298 µM)	2 µg/mL (≈ 2.33 µM)	256 µg/mL (≈ 298 µM)	512 µg/mL (≈ 597 µM)	32 µg/mL (≈ 37.3 µM)	10 µg/mL (≈ 11.7 µM)	512 µg/mL (≈ 597 µM)	64 µg/mL (≈ 74.6 µM)	>512 µg/mL				
CC(N)C(=O)N(C)C(C)C(NC(=O)C(Cc1ccc(F)cc1)NC(=O)NC(Cc1ccc(O)cc1)C(=O)O)C(=O)NCC1CC(O)C(n2ccc(=O)[nH]c2=O)O1 [Compound 157, 1-[5′-[(2S,3S)-N^3-L-Alanyl-N^2-[N-[[(1S)-1-carboxy-4-hydroxyphenethyl]carbamoyl]-L-4-fluorophenylalanyl]-N^3-methyl-2,3-diaminobutyramido]-3′,5′-dideoxy-α-L-arabinofuranosyl]uracil]	10 µg/mL (≈ 12.7 µM)	>512 µg/mL	256 µg/mL (≈ 326 µM)	128 µg/mL (≈ 163 µM)	<1 µg/mL	512 µg/mL (≈ 652 µM)	4 µg/mL (≈ 5.1 µM)	16 µg/mL (≈ 20.4 µM)	10 µg/mL (≈ 12.7 µM)	>512 µg/mL	<1 µg/mL	>512 µg/mL				
CC(N)C(=O)N(C)C(C)C(NC(=O)C(CC1CCCCC1)NC(=O)NC(Cc1c[nH]c2ccccc12)C(=O)O)C(=O)NCC1CC(O)C(n2ccc(=O)[nH]c2=O)O1 [Compound 136, 1-[5-(2S 3S)-N^3-L-Alanyl-N^2-[N-[[(1S)-1-carboxy-2-indol-3-ylethyl]carbamoyl]-L-cyclohexylalanyl]-N^3-methyl-2,3-diaminobutyramido]-3′,5′-dideoxy-α-L-arabinofuranosyl]uracil]		>512 µg/mL	>512 µg/mL	128 µg/mL (≈ 161 µM)	4 µg/mL (≈ 5.03 µM)	>512 µg/mL	>512 µg/mL	64 µg/mL (≈ 80.4 µM)		>512 µg/mL	64 µg/mL (≈ 80.4 µM)	>512 µg/mL	8 µg/mL (≈ 10.1 µM)	128 µg/mL (≈ 161 µM)		
C[C@H](NC(=O)N[C@@H](Cc1c[nH]c2ccccc12)C(=O)O)C(=O)N[C@H](C(=O)N/C=C1/C[C@@H](O)[C@H](n2ccc(=O)[nH]c2=O)O1)[C@H](C)N(C)C(=O)[C@@H](N)Cc1cccc(O)c1 [Pacidamycin 4, reference compound]															>30 µg/mL	>30 µg/mL
C[C@@H]([C@H](NC(=O)[C@H](Cc1ccccc1)NC(=O)N[C@@H](Cc1c[nH]c2ccccc12)C(=O)O)C(=O)NC[C@H]1C[C@@H](O)[C@H](n2ccc(=O)[nH]c2=O)O1)N(C)C(=O)CN [Compound 128, 1-[5′-[(2S,3S)-N^2-[N-[[(1S)-1-Carboxy-2-indol-3-ylethyl]carbamoyl]-L-phenylalanyl]-N^3-glycyl-N^3-methyl-2,3-diaminobutyramido]-3′,5′-dideoxy-α-L-arabinofuranosyl]uracil]		>512 µg/mL	64 µg/mL (≈ 82.5 µM)	8 µg/mL (≈ 10.3 µM)	2 µg/mL (≈ 2.58 µM)	256 µg/mL (≈ 330 µM)	256 µg/mL (≈ 330 µM)	<1 µg/mL		>512 µg/mL	16 µg/mL (≈ 20.6 µM)	>512 µg/mL	4 µg/mL (≈ 5.16 µM)	64 µg/mL (≈ 82.5 µM)		
CC(C(NC(=O)C(Cc1ccccc1)NC(=O)NC(Cc1c[nH]c2ccccc12)C(=O)O)C(=O)NCC1CC(O)C(n2ccc(=O)[nH]c2=O)O1)N(C)C(=O)C(N)Cc1ccccc1 [Compound 156, 1-[5′-[(2S,3S)-N^2-[N-[[(1S)-1-Carboxy-2-indol-3-ylethyl]carbamoyl]-L-phenylalanyl]-N^3-L-phenylalanyl-N^3-methyl-2,3-diaminobutyramido]-3′,5′-dideoxy-α-L-arabinofuranosyl]uracil]		256 µg/mL (≈ 296 µM)	256 µg/mL (≈ 296 µM)	32 µg/mL (≈ 37 µM)	4 µg/mL (≈ 4.62 µM)	>512 µg/mL	512 µg/mL (≈ 591 µM)	32 µg/mL (≈ 37 µM)		>512 µg/mL	512 µg/mL (≈ 591 µM)	256 µg/mL (≈ 296 µM)	16 µg/mL (≈ 18.5 µM)	256 µg/mL (≈ 296 µM)		
C[C@H](N)C(=O)N(C)[C@@H](C)[C@H](NC(=O)[C@H](Cc1ccccc1)NC(=O)N[C@@H](Cc1ccc(O)cc1)C(=O)O)C(=O)NC[C@H]1C[C@@H](O)[C@H](n2ccc(=O)[nH]c2=O)O1 [Compound 160]		>512 µg/mL	256 µg/mL (≈ 334 µM)	16 µg/mL (≈ 20.9 µM)	<1 µg/mL	512 µg/mL (≈ 668 µM)	32 µg/mL (≈ 41.7 µM)	8 µg/mL (≈ 10.4 µM)		512 µg/mL (≈ 668 µM)	4 µg/mL (≈ 5.22 µM)	>512 µg/mL	16 µg/mL (≈ 20.9 µM)	128 µg/mL (≈ 167 µM)		
CC(N)C(=O)N(C)C(C)C(NC(=O)C(Cc1csc2ccccc12)NC(=O)NC(Cc1ccc(O)cc1)C(=O)O)C(=O)NCC1CC(O)C(n2ccc(=O)[nH]c2=O)O1 [Compound 130, 1-[5′-[(2S,3S)-N^3-L-Alanyl-N^2-[N-[[(1S)-1-carboxy-4-hydroxyphenethyl]carbamoyl]-L-benzothienylalanyl]-N^3-methyl-2,3-diaminobutyramidol-3′,5′-dideoxy-α-L-arabinofuranosyl]uracil]		>512 µg/mL	512 µg/mL (≈ 622 µM)	64 µg/mL (≈ 77.8 µM)	8 µg/mL (≈ 9.72 µM)	256 µg/mL (≈ 311 µM)	64 µg/mL (≈ 77.8 µM)	16 µg/mL (≈ 19.4 µM)		128 µg/mL (≈ 156 µM)	16 µg/mL (≈ 19.4 µM)	>512 µg/mL	8 µg/mL (≈ 9.72 µM)	32 µg/mL (≈ 38.9 µM)		
